The values that follow come from PubChem BioAssay AID743284 (The Scripps Research Institute Molecular Screening Center, 2014).

The target in this test is COUP transcription factor 2 (Homo sapiens) (UniProt P24468). Kind of test: NR2F2 transcriptional activity inhibitors, potency, late-stage follow-up, cell-based, luciferase reporter, HEK293, powder samples, round 000 (AID 743284). Conditions: HEK293 NGFI-A luciferase reporter, luminescence.

Structures are written as SMILES. The source made the active and inactive calls.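 The calls were made as follows: active = compounds whose fitted concentration for half-maximal reporter inhibition is 10 µM or lower; inactive = the rest.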

Chain of COUP transcription factor 2 (Homo sapiens) (P24468 whole entry, looked up): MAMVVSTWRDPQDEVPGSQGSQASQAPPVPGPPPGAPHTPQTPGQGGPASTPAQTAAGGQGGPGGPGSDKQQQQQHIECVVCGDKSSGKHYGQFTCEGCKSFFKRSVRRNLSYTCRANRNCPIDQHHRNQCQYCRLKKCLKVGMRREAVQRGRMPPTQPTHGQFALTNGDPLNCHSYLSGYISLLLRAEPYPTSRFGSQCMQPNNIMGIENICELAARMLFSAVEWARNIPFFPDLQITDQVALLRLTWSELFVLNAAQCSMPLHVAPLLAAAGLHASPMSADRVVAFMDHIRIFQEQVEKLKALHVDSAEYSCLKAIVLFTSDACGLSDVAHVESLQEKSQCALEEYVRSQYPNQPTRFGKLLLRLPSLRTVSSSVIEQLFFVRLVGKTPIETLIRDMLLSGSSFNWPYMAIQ

Turning to `CC(Nc1ncnc2ccccc12)c1ccccc1` (stereo not drawn), the IC50 was 4.97 µM.

`Cn1nccc1C(=O)NC1CCCc2c1cnn2-c1ccc(C(C)(C)C)cc1` (stereo not drawn): the half-inhibitory concentration (IC50) is 1.38 µM.

For the molecule `COc1ccc(OC)c(CCNC(=O)Cn2nc(C)c3c(C)n(-c4ccc(C)cc4)nc3c2=O)c1`, the IC50 is 3.14 µM. `COc1ccc(CN(C)c2ccc(S(=O)(=O)N3CCN(C)CC3)cc2[N+](=O)[O-])cc1OC`: the IC50 was 2.76 µM. Consider `Cc1sc2ncnc(NCCc3ccc(S(N)(=O)=O)cc3)c2c1C`, for which the IC50 is 5.74 µM. On to `CCC1CCCCN1C(=O)c1cc(COc2ccc3ncccc3c2)on1` (stereo not drawn), for which the IC50 is 3.33 µM. For the molecule `CC(=O)Nc1ccccc1OCC(=O)c1cc(C)n(Cc2cccs2)c1C`, the IC50 is 0.586 µM. Regarding `COc1ccc(NS(=O)(=O)c2cccc(NC(=O)c3ccc(Cl)nc3)c2)cc1`, the IC50 was 3.46 µM. Next, `COc1ccc(CCNc2ncnc3sccc23)cc1OC`: 1.79 µM; `CCN(CC)S(=O)(=O)c1cccc(NC(=O)CNc2cccc(S(=O)(=O)N3CCCC3)c2)c1`: 3.99 µM.

For `CCOc1cc(S(=O)(=O)NCc2ccncc2)ccc1Cl`, the IC50 is 2.06 µM. As for `Cc1cc(-n2nc3ccccc3n2)c2oc(SCC(=O)NC(C)(C)C)nc2c1`, the IC50 entry was “inactive”. Take `CCOC(=O)C1CCCN(S(=O)(=O)c2ccc(S(=O)(=O)N(CC)CC)cc2)C1` (stereo not drawn): the IC50 is 3.02 µM. As for `Cc1ccc(OCCN2CCN(c3ncnc4sc(C)c(C)c34)CC2)cc1`, the IC50 is 3.43 µM. The figure for `CCOC(=O)N1CCN(C(=O)CSCC(=O)Nc2nc(-c3ccc(-c4ccccc4)cc3)cs2)CC1` is 2.91 µM; for `Cc1ccc(S(=O)(=O)CC2CSc3nc4ccccc4n32)cc1` (stereo not drawn) it is 4.16 µM; for `Cc1sc2ncnc(NCC3COc4ccccc4O3)c2c1C` (stereo not drawn) it is 3.27 µM. `COc1ccc(C2=Nn3c([n+](C)c4ccccc43)SC2)cc1`: the IC50 is 4.8 µM. Next, `COc1ccc(CCNc2ncnc3sc(C)cc23)cc1OC`: 1.49 µM; `Cc1nn(C)c(C)c1CN(C)S(=O)(=O)c1ccc2ccccc2c1`: 3.27 µM. As for `O=C(Nc1ccncc1)c1ccc(Cl)c(S(=O)(=O)N2CCc3ccccc32)c1`, the IC50 was 3.86 µM. With `COc1ccc(NS(=O)(=O)c2ccc(-c3coc(C)n3)cc2)cc1OC`, the IC50 is 5.73 µM. Next, `Cc1oc(-c2ccc(Cl)cc2)nc1CS(=O)CC(=O)NCCCN1CCN(Cc2ccccc2)CC1` (stereo not drawn): 6.24 µM; `Cc1cc(C)c(S(=O)(=O)NCc2ccncc2)c(C)c1`: 5.42 µM; `CC1Cc2cc(-c3csc(NC(=O)Cc4cccs4)n3)ccc2N1S(C)(=O)=O` (stereo not drawn): 2.3 µM. On to `Cc1cc(-n2c(C)cc(C(=O)CSc3ncnc4ccccc34)c2C)no1`, for which the IC50 is 6.99 µM. As for `O=S(=O)(NCC1CCCO1)c1ccc(-c2ccc(S(=O)(=O)NCC3CCCO3)cc2)cc1` (stereo not drawn), the 50% inhibitory concentration (IC50) was 1.87 µM.

On to `CN(CC1CCCO1)S(=O)(=O)c1ccc(C(=O)Nc2nc3cc4c(cc3s2)OCO4)cc1` (stereo not drawn), for which the IC50 is 1.99 µM.
